A short description of series [1]: metabolic stability in cryopreserved mouse hepatocytes. The protocol:
(§1) Metabolic stability of 11o was determined in cryopreserved hepatocytes from mice, rats, dogs, monkeys and human according to the SOPs of Frontage Laboratories Inc. Briefly, cryopreserved hepatocytes for pre-clinical animals and for human (BioIVT, Westbury, NY, USA) were thawed in a 37 °C water bath with gentle shaking until ice had almost melted. The suspensions were immediately transferred to a centrifuge tube (50 mL) containing pre-warmed thawing media at 37 °C with gentle handshaking to prevent the cells from settling. Cell suspensions were centrifuged at 50× g and 4 °C for 5 min. The supernatant was discarded and the pellets were resuspended in prewarmed incubation media (5 mL) at 37 °C. The percentage of viable cells in the suspension was determined by Trypan blue staining method to ensure viability of ≥70 %. […] The samples were centrifuged and aliquots of the supernatant were analyzed for parent compounds by LC/MS/MS using suitable multiple reaction monitoring (MRM) transitions. […] The disappearance of 11o and midazolam was monitored by LC/MS/MS (MRM) analysis of the hepatocyte extracts at each time point. The peak area ratio of the analyte to internal standard was obtained for each sample and the rate of disappearance of 11o was assessed by comparing the peak area ratios at various time points to the peak area ratio obtained at t = 0. The t1/2 is obtained (using the linear portion of semi-log plot of the area ratio vs. time) and the CLint values determined using well-stirred model.

A short description of series [2]: metabolic stability in cryopreserved rat hepatocytes. The protocol: as §1
A short description of series [3]: metabolic stability in cryopreserved dog hepatocytes. The protocol:
as §1

Series [4] in a line: metabolic stability in cryopreserved monkey hepatocytes. The protocol: as §1
The nature of series [5]: metabolic stability in cryopreserved human hepatocytes. The protocol: as §1
In series [6] the target is T1, hA2A receptors (Homo sapiens, UniProt P29274).
T1 construct: purchased PerkinElmer RBHA2AM
Put plainly: radioligand binding to human A2A receptors, HEK-293 membranes. The note with it: average of duplicate experiments. The protocol: The binding affinities of synthesized compounds to human A2A receptors (hA2AR) were measured by assessing competitive binding of ligands to radioligand […] using membrane preparations of human recombinant HEK-293 cells expressing human A2A receptors.
The radioligand-binding assays for adenosine receptors were performed at Eurofins Discovery Services (Panlabs, Taiwan). Briefly, stock solutions of the compounds were prepared in DMSO and further diluted with the incubation buffer to the desired concentration. Final DMSO concentrations in the assay were 1.0%. […] Nonspecific binding was estimated in the presence of 100 μM R(-)-PIA. Membranes were filtered and washed 3 times and the filters were counted to determine specifically bound [^3H]DPCPX. Chemical compounds were screened at 10 μM. […] Nonspecific binding was estimated in the presence of 50.0 μM NECA. […] Nonspecific binding was estimated in the presence of 100 μM NECA. Membranes were filtered and washed 3 times and the filters were counted to determine [^3H]MRS1754 specifically bound. […] Nonspecific binding was estimated in the presence of 1.0 μM IB-MECA.
IC50 values were determined by a nonlinear, least-squares regression analysis using MathIQ^TM (ID Business Solutions Ltd., Guildford, UK). […] The Hill coefficient (nH), which defines the slope of the competitive binding curve, was calculated using MathIQ^TM.

In series [7] the target is T2, hA1 receptor (Homo sapiens, UniProt P30542).
T2 sequence (P30542 1-326): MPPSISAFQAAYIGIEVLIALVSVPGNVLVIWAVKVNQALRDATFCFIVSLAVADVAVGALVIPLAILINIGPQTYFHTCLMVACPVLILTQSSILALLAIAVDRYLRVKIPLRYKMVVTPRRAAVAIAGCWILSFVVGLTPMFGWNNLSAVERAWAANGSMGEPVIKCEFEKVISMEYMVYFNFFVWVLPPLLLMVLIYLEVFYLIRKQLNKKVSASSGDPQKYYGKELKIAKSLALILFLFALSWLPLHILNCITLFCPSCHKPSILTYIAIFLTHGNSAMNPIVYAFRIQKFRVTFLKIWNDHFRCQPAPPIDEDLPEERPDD
The series is described as follows: radioligand binding to human A1 receptors, CHO-K1 membranes, [3H]DPCPX. The note with it: average of duplicate experiments. The protocol:
The radioligand-binding assays for adenosine receptors were performed at Eurofins Discovery Services (Panlabs, Taiwan). Briefly, stock solutions of the compounds were prepared in DMSO and further diluted with the incubation buffer to the desired concentration. Final DMSO concentrations in the assay were 1.0%. For adenosine A1 screening, a 10 μg aliquots of membrane preparations from human recombinant CHO-K1 cells stably expressing A1 receptors (CHO-K1-hA1AR clone3, EPDST, R200510) were incubated with 1 nM [^3H]DPCPX in incubation buffer (20 mM HEPES, pH 7.4, 10 mM MgCl2, 100 mM NaCl 1.40 nM) for 90 min at 25 °C. Nonspecific binding was estimated in the presence of 100 μM R(-)-PIA. Membranes were filtered and washed 3 times and the filters were counted to determine specifically bound [^3H]DPCPX. Chemical compounds were screened at 10 μM. For A2A screening, membrane preparations from human recombinant HEK-293 cells stably expressing A2A receptors (PerkinElmer, RBHA2AM) were incubated with 0.05 μM [^3H]CGS-21680 in incubation buffer (50 mM Tris-HCl, pH 7.4, 10 mM MgCl2, 1 mM EDTA, 2 U/mL Adenosine Deaminase) for 90 min at 25 °C. Nonspecific binding was estimated in the presence of 50.0 μM NECA. Membranes were filtered and washed 3 times and the filters were counted to determine [^3H]CGS-21680 specifically bound. For A2B screening, membrane preparations from human recombinant HEK-293 cells stably expressing A2B receptors (PerkinElmer, ES-013-M) were incubated with 1.6 nM [^3H]MRS1754 in incubation buffer (50 mM Tris-HCl, pH 6.5, 5 mM MgCl2, 1 mM EDTA, 0.01 % Bacitracin) for 90 min at 25 °C. Nonspecific binding was estimated in the presence of 100 μM NECA. Membranes were filtered and washed 3 times and the filters were counted to determine [^3H]MRS1754 specifically bound. For A3 screening, membrane preparations from human recombinant CHO-K1 cells stably expressing A3 receptors (PerkinElmer, ES-012-M) were incubated with 0.5 nM [^125I]AB-MECA in incubation buffer (25 mM HEPES, pH 7.4, 5 mM MgCl2, 1 mM CaCl2, 0.1 % BSA) for 60 min at 25 °C. Nonspecific binding was estimated in the presence of 1.0 μM IB-MECA.
IC50 values were determined by a nonlinear, least-squares regression analysis using MathIQ^TM (ID Business Solutions Ltd., Guildford, UK). Where inhibition constants (Ki) were presented, the Ki values were calculated using Cheng and Prusoff equation [18] using the observed IC50 of the compound, the concentration of radioligand employed in the assay, and the historical values for the KD of the ligand (obtained experimentally at Eurofins Panlabs, Inc.). The Hill coefficient (nH), which defines the slope of the competitive binding curve, was calculated using MathIQ^TM.

Series [8] in a line: solubility (qualitative). The note with it: CF3 next to aniline, difficulties in forming salt. The class given is physicochemical.

T1 sequence (P29274 whole entry): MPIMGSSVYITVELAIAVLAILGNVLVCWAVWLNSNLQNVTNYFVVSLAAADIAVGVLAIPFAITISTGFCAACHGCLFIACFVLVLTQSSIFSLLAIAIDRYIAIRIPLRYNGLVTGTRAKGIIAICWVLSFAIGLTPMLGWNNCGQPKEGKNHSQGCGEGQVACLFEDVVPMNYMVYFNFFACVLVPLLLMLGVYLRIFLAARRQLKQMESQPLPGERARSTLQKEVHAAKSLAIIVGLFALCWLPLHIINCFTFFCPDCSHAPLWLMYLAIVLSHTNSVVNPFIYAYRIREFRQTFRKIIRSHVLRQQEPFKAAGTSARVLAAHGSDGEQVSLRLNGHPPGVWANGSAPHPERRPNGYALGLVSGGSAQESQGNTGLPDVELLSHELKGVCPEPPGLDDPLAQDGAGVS

For orientation: half-life means the time needed for the level to fall by half in the phase considered. On to `Cc1ncc2n1-c1ccc(Cl)cc1C(c1ccccc1F)=NC2` [Midazolam, reference compound], for which the half-life at 0.2 μM in series [1] (CD-1, mouse, hepatocytes) is 49.9 min; in series [2] (Sprague Dawley, rat, hepatocytes) it was 21.9 min; in series [3] (beagle, dog, hepatocytes), 32.8 min; in series [4] (monkey, hepatocytes) it was 36 min; in series [5] (human, hepatocytes), 68.3 min. Also, the “Intrinsic Clearance” value in series [1] (mouse hepatocytes, midazolam 0.2 μM) amounted to 0.0139 mL/min/10^6 Cells; in series [2] (rat hepatocytes, midazolam 0.2 μM), 0.0317 mL/min/10^6 Cells; in series [3] (dog hepatocytes, midazolam 0.2 μM), 0.0211 mL/min/10^6 Cells; in series [4] (monkey hepatocytes, midazolam 0.2 μM), 0.0192 mL/min/10^6 Cells; in series [5] (human hepatocytes, midazolam 0.2 μM), 0.0101 mL/min/10^6 Cells.
For orientation: Ki means a measure of affinity in units of concentration, obtained from inhibition or displacement. Consider `N#Cc1cccc(-c2nc(N)nc3c2cnn3Cc2ccc(N)c(C(F)(F)F)c2)c1F` [11x, 3-(6-Amino-1-(4-amino-3-(trifluoromethyl)benzyl)-1H-pyrazolo[3,4-d]pyrimidin-4-yl)-2-fluorobenzonitrile], for which the Ki in series [6] was 0.00271 µM; in series [7], 0.033 µM. For the same compound, the “solubility (in words)” value in series [8] is given as “greatly reduced solubility”.
In the same order, the values of `N#Cc1ccnc(-c2nc(N)nc3c2cnn3Cc2ccc(N)c(C(F)(F)F)c2)c1` [11v, 2-[6-Amino-1-[[4-amino-3-(trifluoromethyl)phenyl]methyl]pyrazolo[3,4-d]pyrimidin-4-yl]pyridine-4-carbonitrile] are 0.0102 µM, 0.25 µM and “greatly reduced solubility”.
Consider `N#Cc1cccc(-c2nc(N)nc3c2cnn3Cc2ccc(N)c(C(F)(F)F)c2)c1` [11w, 3-(6-Amino-1-(4-amino-3-(trifluoromethyl)benzyl)-1H-pyrazolo[3,4-d]pyrimidin-4-yl)benzonitrile], for which the Ki in series [6] amounted to 0.00194 µM; in series [7], 0.049 µM. For the same compound, in series [8], the “solubility (in words)” value was “greatly reduced solubility”.

The values above are taken from article PMC9394284, “Discovery of Novel Dual Adenosine A2A and A1 Receptor Antagonists with 1H-Pyrazolo[3,4-d]pyrimidin-6-amine Core Scaffold as Anti-Parkinson’s Disease Agents” (Pharmaceuticals, 2022).
